{
  "source": "patent US20140220110A1",
  "about": "“REMOTE LOADING OF SPARINGLY WATER-SOLUBLE DRUGS INTO LIPOSOMES” (ZONEONE PHARMA, INC., priority 2013, published 2014)",
  "test": "Remote loading of carfilzomib precipitate into liposomes (drug and lipid by HPLC after purification)",
  "format": "physicochemical",
  "conditions": "for efficiency of remote loading: 100 g drug/mol HSPC",
  "description": "Ammonium sulfate solution was prepared by dissolving ammonium sulfate solid to a final concentration of 250 mM (500 mequivilents of anion/L) no pH adjustment was made to yield a final pH of 5.6. Sodium sulfate solution (250 mM) was prepared by adding 0.35 g sodium sulfate to 10 mL deionized water.\nThe liposomes were formed by extrusion. Lipids were dissolved in ethanol at a concentration of 500 mM HSPC (591 mg/mL total lipid) at 65° C. and the 9 volumes of the trapping agent solution heated to 65° C. was added to the ethanol/lipid solution also at 65° C. The mixture was vortexed and transferred to a 10 mL thermostatically controlled (65° C.) Lipex Extruder. The liposomes were formed by extruding 10 times through polycarbonate membranes having 0.1 um pores. After extrusion the liposomes were cooled on ice. The transmembrane electrochemical gradient was formed by purification of the liposomes by dialysis in dialysis tubing having a molecular weight cut off of 12,000-14,000. The samples are dialyzed against 5 mM HEPES, 10% sucrose pH 6.5 (stirring at 4° C.) at volume that is 100 fold greater than the sample volume. The dialysate was changed after 2 h then 4 more times after 12 h each. The conductivity of the liposome solution was measured and was indistinguishable from the dialysis medium ˜40 μS/cm.\nThe lipid concentration is determined by measuring the cholesterol by HPLC using an Agilent 1100 HPLC with and Agilent Zorbax 5 um, […], Eclipse XDB-C8 column and a mobile phase of A=0.1% TFA, B=0.1% TFA/MeOH with an isocratic elution of 99% B. The flow rate is 1.0 mL/min, column temperature is 50° C., 10 μL injection and detection by absorbance at 205 nm. The retention time of cholesterol is 4.5 min. The liposome size is measured by dynamic light scattering.\nCarfilzomib (Selleck Chemicals) was dissolved in DMSO at a concentration of 10 mg/mL. The carfilzomib was introduced to the liposomes at a carfilzomib to HSPC ratio of 100 g drug/mol HSPC (drug to total lipid ratio (wt/wt) of 0.12). The liposomes were diluted with 50 mM citrate, 10% sucrose pH 4.0 to increase the volume to a point where after addition of the drug the final DMSO concentration is 2%. The carfilzomib/DMSO was added to the diluted liposomes, which were mixed at room temperature then transferred to a 65° C. bath and swirled every 30 s for the first 3 min and then swirled every 5 min over a total heating time of 30 min. All samples were very cloudy when the drug was added and all became clear (same as liposomes with no drug added) after 15 min. After heating for 30 min all samples were placed on ice for 15 min. The loaded liposomes were vortexed and 100 μL of sample was kept as the “before column” and the rest transferred to microcentrifuge tubes and spun at 10,000 RPM for 5 min. The supernatants were purified on a Sephadex G25 column collected and analyzed by HPLC. The HPLC analysis of carfilzomib was performed on the same system as described for analysis of cholesterol. The mobile phase consists of A=0.1% TFA, B=0.1% TFA/MeOH with a gradient elution starting at 50% B and increasing to 83% B in 13 min with 7 min equilibration back to 50% B. The flow rate is 1.0 mL/min, column temperature is 30 C, 10 μl injection and detection by absorbance at 205 nm. The retention time of carfilzomib is 12.2 min. The lipid concentration is determined by analysis of the cholesterol by HPLC.",
  "key": {"[1]": {"conditions": "250 mM ammonium sulfate liposomes, drug added at 100 g drug/mol HSPC"}},
  "data": [
    {"compound": "CC(C)C[C@H](NC(=O)[C@H](CCc1ccccc1)NC(=O)CN1CCOCC1)C(=O)N[C@@H](Cc1ccccc1)C(=O)N[C@@H](CC(C)C)C(=O)[C@@]1(C)CO1", "note": "[carfilzomib]", "values": [
      {"measurement": "efficiency of remote loading", "setting": "10 mg/mL DMSO solution added in 5 increments over 1 min while vortexing", "value": "96.3%±1.09%"},
      {"measurement": "final drug to lipid ratio", "setting": "[1]", "value": "95.26±3.47 g drug/mol of HSPC"},
      {"measurement": "loading efficiency", "setting": "[1]", "value": "95.26±3.47", "unit": "%"},
      {"measurement": "final drug load", "setting": "control liposomes with 250 mM sodium sulfate (no gradient), drug added at 100 g drug/mol HSPC", "value": "33.28±0.79 g drug/mol of HSPC"},
      {"measurement": "loading capacity of remote loaded liposomes over sodium sulfate liposomes", "setting": "input 100 g drug/mol HSPC", "value": "> 3", "unit": "fold"},
      {"measurement": "efficiency of remote loading", "setting": "trapping agent ammonium sulfate, 10 mg/mL DMSO solution added quickly", "value": "97.0%±2.38%"}
    ]}
  ]
}
